Earlier results as cited in patent US11833140B2, “Compositions and methods for treating, ameliorating and preventing H. pylori infections” (priority 2017, dated 2023).

Experiments:
H. pylori (HP) = settings: first line therapy, with amoxicillin and clarithromycin
[1] = after a single 20 mg ingestion
H^+/K^+—ATPAs = target: T1, H^+/K^+—ATPAs (Homo sapiens, UniProt P20648); settings: within 4 hours of its first administration in humans
T1 construct: increase intragastric pH to at least over pH 4.0 within 4 hours of its first administration in humans; host or cells: human stomach in vivo
T1 sequence (P20648 whole entry): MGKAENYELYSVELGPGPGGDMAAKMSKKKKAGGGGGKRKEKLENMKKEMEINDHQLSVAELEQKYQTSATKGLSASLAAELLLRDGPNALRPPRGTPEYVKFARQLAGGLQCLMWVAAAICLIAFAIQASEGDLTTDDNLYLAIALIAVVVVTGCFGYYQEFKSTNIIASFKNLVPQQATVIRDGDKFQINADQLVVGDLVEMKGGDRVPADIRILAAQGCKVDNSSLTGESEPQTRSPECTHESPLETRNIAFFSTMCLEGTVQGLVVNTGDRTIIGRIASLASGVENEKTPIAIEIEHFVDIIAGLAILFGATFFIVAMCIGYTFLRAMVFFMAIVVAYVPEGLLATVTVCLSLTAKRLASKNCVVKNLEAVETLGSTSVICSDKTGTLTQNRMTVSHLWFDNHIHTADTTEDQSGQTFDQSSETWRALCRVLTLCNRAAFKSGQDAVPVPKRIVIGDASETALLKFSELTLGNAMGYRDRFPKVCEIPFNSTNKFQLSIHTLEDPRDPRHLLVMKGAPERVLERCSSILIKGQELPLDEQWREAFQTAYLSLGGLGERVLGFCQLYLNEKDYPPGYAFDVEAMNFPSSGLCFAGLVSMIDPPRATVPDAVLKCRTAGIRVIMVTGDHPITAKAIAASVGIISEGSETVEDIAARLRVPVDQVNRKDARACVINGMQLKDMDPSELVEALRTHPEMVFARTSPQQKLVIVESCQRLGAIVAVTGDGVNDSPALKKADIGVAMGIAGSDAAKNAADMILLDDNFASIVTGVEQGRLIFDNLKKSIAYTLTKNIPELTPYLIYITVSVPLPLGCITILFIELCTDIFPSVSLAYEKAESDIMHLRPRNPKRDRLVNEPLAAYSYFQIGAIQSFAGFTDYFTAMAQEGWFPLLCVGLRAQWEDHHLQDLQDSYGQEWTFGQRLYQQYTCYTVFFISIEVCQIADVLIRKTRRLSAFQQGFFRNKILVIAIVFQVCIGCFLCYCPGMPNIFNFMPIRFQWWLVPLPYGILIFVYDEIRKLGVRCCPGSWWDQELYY
T1 sequence (P51164 whole entry partner): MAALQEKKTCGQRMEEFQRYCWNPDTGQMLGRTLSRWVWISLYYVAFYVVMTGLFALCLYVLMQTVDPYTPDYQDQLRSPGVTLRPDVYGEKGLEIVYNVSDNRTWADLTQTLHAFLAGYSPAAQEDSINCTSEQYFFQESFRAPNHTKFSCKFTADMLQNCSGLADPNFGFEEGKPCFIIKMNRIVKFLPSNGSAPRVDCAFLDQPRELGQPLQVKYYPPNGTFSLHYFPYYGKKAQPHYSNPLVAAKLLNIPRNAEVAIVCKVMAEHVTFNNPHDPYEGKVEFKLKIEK

CYP3A4 = CYP3A4 (Homo sapiens, UniProt P08684)
Sequence of CYP3A4 (P08684 whole entry): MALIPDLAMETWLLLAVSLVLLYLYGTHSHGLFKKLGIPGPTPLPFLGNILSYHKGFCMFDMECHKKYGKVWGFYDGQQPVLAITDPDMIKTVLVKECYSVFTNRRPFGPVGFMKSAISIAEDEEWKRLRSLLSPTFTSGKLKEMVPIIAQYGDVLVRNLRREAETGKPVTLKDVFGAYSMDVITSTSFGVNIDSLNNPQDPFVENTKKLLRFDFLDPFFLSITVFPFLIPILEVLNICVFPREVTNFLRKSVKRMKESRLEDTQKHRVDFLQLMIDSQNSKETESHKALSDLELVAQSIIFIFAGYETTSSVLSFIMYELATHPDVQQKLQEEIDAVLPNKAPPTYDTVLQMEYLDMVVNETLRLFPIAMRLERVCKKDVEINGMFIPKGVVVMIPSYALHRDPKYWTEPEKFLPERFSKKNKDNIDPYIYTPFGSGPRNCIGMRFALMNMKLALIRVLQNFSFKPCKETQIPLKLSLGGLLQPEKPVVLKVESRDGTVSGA

[2] = compared with conventional PPI's

SMILES | H. pylori (HP) eradication rate (H. pylori (HP)) | plasma half-life [1] | intragastric pH (H^+/K^+—ATPAs) | metabolised by (CYP3A4) | metabolised through the hepatic CYP2C19 haplotypes (CYP2C19) | stability at neutral pH [2]
Cc1c(OCC(F)(F)F)ccnc1C[S+]([O-])c1nc2ccccc2[nH]1 (stereo not drawn) [lansoprazole] | 76% |  |  |  |  | 
CNCc1cc(-c2ccccc2F)n(S(=O)(=O)c2cccnc2)c1.O=C(O)/C=C/C(=O)O [vonoprazan, 1-(5-(2-fluorophenyl)-1-(pyridin-3-ylsulfonyl)-1H-pyrrol-3-yl)-N-methylmethanamine fumarate] |  | 7 h | > 4.0 pH | by the CYP3A4 system | not metabolised | more stable
